Assays:
[1] = system: mixed cooling water bacterial culture; assay: Control experiments: bromide addition alone in phosphate buffer, plate counts; type: cell-based
Experimental: In order to make certain that the observed biocidal performance enhancement is not caused by the bromide addition alone, a set of control experiments are conducted. […] The differences among all the plate count results are well within the detection limit. Therefore, the performance improvement seen in Examples 1-3 is not caused by the increased concentration of sodium bromide alone.

[2] = in water; cited from earlier work

## [Br-].[Na+] [NaBr, sodium bromide]
[1]; 50-150 ppm NaBr in phosphate buffer
  Biocidal effect of bromide addition alone: not biocidal
[1]; 50 ppm NaBr, 0 minutes
  Bacterial counts: 7.3 × 10^5 CFU/ml
[1]; 50 ppm NaBr, 5 minutes
  Bacterial counts: 9.3 × 10^5 CFU/ml
[1]; 50 ppm NaBr, 10 minutes
  Bacterial counts: 7.0 × 10^5 CFU/ml
[1]; 50 ppm NaBr, 60 minutes
  Bacterial counts: 8.0 × 10^5 CFU/ml
[1]; 100 ppm NaBr, 0 minutes
  Bacterial counts: 7.3 × 10^5 CFU/ml
[1]; 100 ppm NaBr, 5 minutes
  Bacterial counts: 11.0 × 10^5 CFU/ml
[1]; 100 ppm NaBr, 10 minutes
  Bacterial counts: 8.2 × 10^5 CFU/ml
[1]; 100 ppm NaBr, 60 minutes
  Bacterial counts: 5.4 × 10^5 CFU/ml
[1]; 150 ppm NaBr, 0 minutes
  Bacterial counts: 7.3 × 10^5 CFU/ml
[1]; 150 ppm NaBr, 5 minutes
  Bacterial counts: 8.4 × 10^5 CFU/ml
[1]; 150 ppm NaBr, 10 minutes
  Bacterial counts: 5.2 × 10^5 CFU/ml
[1]; 150 ppm NaBr, 60 minutes
  Bacterial counts: 8.3 × 10^5 CFU/ml

## BrBr [elemental liquid bromine, bromine]
[2]
  solubility: < 4 g/100 g water

From patent US20060003028A1, “Stable oxidizing bromine composition, method of manufacture and use thereof for biofouling control” (priority 2004, published 2006)
